Experimental data reported in US8759334B2, “Compounds useful for the treatment of metabolic and inflammatory diseases” (Galapagos NV, priority 2011, dated 2014).
pIC50: −log10 of the molar value.

Columns and labels:
GPR43 [1] = target: T1, GPR43 (Homo sapiens, UniProt O15552); test: Calcium mobilization assay with probenecid; type: cell-based; conditions: GPR43 stably expressing cells; triggered with sodium acetate at EC80; 2.5 mM probenecid; read-out: GPR43 assay with probenicid IC50
T1 construct: expressed in transfected cells
T1 sequence (O15552 1-330): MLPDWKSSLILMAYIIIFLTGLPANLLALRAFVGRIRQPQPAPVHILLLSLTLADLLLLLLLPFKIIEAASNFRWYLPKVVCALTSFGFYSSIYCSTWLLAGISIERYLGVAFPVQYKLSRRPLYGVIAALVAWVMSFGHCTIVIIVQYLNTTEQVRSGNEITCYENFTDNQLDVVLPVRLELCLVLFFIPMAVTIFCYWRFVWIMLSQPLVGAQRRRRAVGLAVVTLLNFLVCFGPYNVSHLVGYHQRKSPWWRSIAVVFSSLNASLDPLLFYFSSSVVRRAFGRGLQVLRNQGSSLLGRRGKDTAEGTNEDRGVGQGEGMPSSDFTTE
Procedure, shortened: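 Cells stably expressing GPR43 plated overnight at 37 °C, then loaded 2 h with Calcium 4 dye plus 2.5 mM probenecid. […]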

GPR43 [2] = target: T1, GPR43; test: Calcium mobilization assay without probenecid; type: cell-based; conditions: GPR43 stably expressing cells, triggered with sodium acetate at EC80, read-out: GPR43 assay without probenicid IC50
Experimental: The following assay can be used for determination of GPR43 activation. The assay measures intracellular calcium release induced by activation of GPR43. On day 1, GPR43 stably expressing cells were detached with mild trypsinization (Trypsin, 0.25% with EDTA 4Na, 5× diluted in PBS) centrifuged at 1000 rpm for 5 min and resuspended at 6.000 cells/25 μL medium (DMEM supplemented with 10% FBS, 10 μg/mL puromycin and 1% Pen/Strep). The cells were distributed in poly-D-lysine coated 384 well plates (black with clear bottom, 25 μL/well) and incubated overnight at 37° C. 10% CO2. On day 2, 25 μL of a fluorescent Ca^2+ indicator (Calcium 4 assay; Molecular Devices) was added on top of the cells and incubated for 2 h at 37° C. Subsequently, compounds at increasing concentration (10 μL/well) were added to the plate and incubated for 15 min at 37° C. Finally the cells were triggered with sodium acetate at EC80 concentration (concentration which gives 80% of the activity of the GPR43) and the Ca-flux was measured simultaneously to the trigger injection on a fluorescence plate reader (FlexStation3), this measures the antagonist activity of the compounds. To measure agonist activity of the compounds, compound was added to the well and the Ca-flux was measured simultaneously to the injection of compound.

Row | pIC50 (GPR43 [1]) | pIC50 (GPR43 [2]) | SMILES
1 | < 6.00 | < 6.00 | CC1(C(=O)NCc2ccc(Cl)cc2)CCN1C(=O)Cc1csc2ccccc12 (stereo not shown) [Compound 57, 1-(2-Benzo[b]thiophen-3-yl-acetyl)-2-methyl-azetidine-2-carboxylic acid 4-chloro-benzylamide]
2 | < 6.00 | 6.00 to 6.30 | Cc1cc(C)cc(CC(=O)N2CCC2(C)C(=O)N(CC(=O)N(C)C)Cc2ccc(Cl)cc2)c1 (stereo not shown) [Compound 54, 1-[2-(3,5-Dimethyl-phenyl)-acetyl]-2-methyl-azetidine-2-carboxylic acid (4-chloro-benzyl)-dimethylcarbamoylmethyl-amide]
3 | < 6.00 | < 6.00 | Cc1cc(C)cc(CC(=O)N2CCC2(C)C(=O)N(CC(=O)NC(C)C)Cc2ccc(Cl)cc2)c1 (stereo not shown) [Compound 80, 1-[2-(3,5-Dimethyl-phenyl)-acetyl]-2-methyl-azetidine-2-carboxylic acid (4-chloro-benzyl)-(isopropylcarbamoyl-methyl)-amide]
4 | 7.00 to 11.00 | 6.30 to 7.00 | COC(=O)CCN(Cc1ccc(Cl)cc1)C(=O)C1(C)CCN1C(=O)Cc1csc2ccccc12 (stereo not shown) [Compound 86, 3-[[1-(2-Benzo[b]thiophen-3-yl-acetyl)-2-methyl-azetidine-2-carbonyl]-(4-chloro-benzyl)-amino]-propionic acid methyl ester]
5 | < 6.00 | < 6.00 | CN(Cc1ccc(Cl)cc1)C(=O)C1(C)CCN1C(=O)Cc1cccc(Cl)c1 (stereo not shown) [Compound 10, 1-[2-(3-Chloro-phenyl)-acetyl]-2-methyl-azetidine-2-carboxylic acid (4-chloro-benzyl)-methyl-amide]
6 | 6.00 to 6.30 | < 6.00 | COC(=O)CN(Cc1cccc(Cl)c1)C(=O)C1(C)CCN1C(=O)Cc1csc2ccccc12 (stereo not shown) [Compound 60, [[1-(2-Benzo[b]thiophen-3-yl-acetyl)-2-methyl-azetidine-2-carbonyl]-(3-chloro-benzyl)-amino]acetic acid methyl ester]
7 | 6.30 to 7.00 | 6.30 to 7.00 | CN(Cc1ccc(Cl)cc1)C(=O)C1(C)CCN1C(=O)c1csc2ccccc12 (stereo not shown) [Compound 98, 1-(Benzo[b]thiophene-3-carbonyl)-2-methyl-azetidine-2-carboxylic acid (4-chloro-benzyl)-methyl-amide]
8 | 6.30 to 7.00 | 6.30 to 7.00 | CNC(=O)CN(Cc1ccc(Cl)cc1)C(=O)C1(C)CCN1C(=O)Cc1cc(C)cc(C)c1 (stereo not shown) [Compound 53, 1-[2-(3,5-Dimethyl-phenyl)-acetyl]-2-methyl-azetidine-2-carboxylic acid (4-chloro-benzyl)-methylcarbamoylmethyl-amide]
9 | 6.30 to 7.00 | 6.30 to 7.00 | CC1(C(=O)N(CC#N)Cc2ccc(Cl)cc2)CCN1C(=O)Cc1csc2ccccc12 (stereo not shown) [Compound 84, 1-(2-Benzo[b]thiophen-3-yl-acetyl)-2-methyl-azetidine-2-carboxylic acid (4-chloro-benzyl)-cyanomethyl-amide]
10 | 6.30 to 7.00 | 6.30 to 7.00 | Cc1cc(C)cc(CC(=O)N2CC[C@]2(C)C(=O)N(CC(=O)O)Cc2ccc(Cl)cc2)c1 [Compound 82, ((4-Chloro-benzyl)-{(R)-1-[2-(3,5-dimethyl-phenyl)-acetyl]-2-methyl-azetidine-2-carbonyl}-amino)-acetic acid]
11 | < 6.00 | < 6.00 | Cc1cc(C)cc(CC(=O)N2CCC2(C)C(=O)N(CC(=O)N2CCOCC2)Cc2ccc(Cl)cc2)c1 (stereo not shown) [Compound 83, 1-[2-(3,5-Dimethyl-phenyl)-acetyl]-2-methyl-azetidine-2-carboxylic acid (4-chloro-benzyl)-(2-morpholin-4-yl-2-oxo-ethyl)-amide]
12 | < 6.00 | 6.00 to 6.30 | Cc1cc(C)cc(CC(=O)N2CCC2(C)C(=O)N(C)Cc2ccc(C)cc2C)c1 (stereo not shown) [Compound 33, 1-[2-(3,5-Dimethyl-phenyl)-acetyl]-2-methyl-azetidine-2-carboxylic acid (2,4-dimethyl-benzyl)-methyl-amide]
13 | < 6.00 | < 6.00 | CN(Cc1ccc(Cl)cc1)C(=O)C1(C)CCN1C(=O)Cc1ccccc1OCc1ccccc1 (stereo not shown) [Compound 16, 1-[2-(2-Benzyloxy-phenyl)-acetyl]-2-methyl-azetidine-2-carboxylic acid (4-chloro-benzyl)-methyl-amide]
14 | < 6.00 | < 6.00 | CN(Cc1ccc(Cl)cc1)C(=O)C1(C)CCN1C(=O)Cc1ccc(Cl)cc1 (stereo not shown) [Compound 11]
15 | < 6.00 | < 6.00 | Cc1cc(C)cc(CC(=O)N2CCC2(C)C(=O)N(C)Cc2ccc(Cl)cc2Cl)c1 (stereo not shown) [Compound 36, 1-[2-(3,5-Dimethyl-phenyl)-acetyl]-2-methyl-azetidine-2-carboxylic acid (2,4-dichloro-benzyl)-methyl-amide]
16 | < 6.00 | < 6.00 | Cc1cc(C)cc(CC(=O)N2CCC2(C)C(=O)N(Cc2ccc(Cl)cc2)C2CC2)c1 (stereo not shown) [Compound 46, 1-[2-(3,5-Dimethyl-phenyl)-acetyl]-2-methyl-azetidine-2-carboxylic acid (4-chloro-benzyl)-cyclopropyl-amide]
17 | 6.00 to 6.30 | 6.00 to 6.30 | COC(=O)CN(Cc1ccc(Cl)cc1)C(=O)C1(C)CCN1C(=O)Cc1cc(C)cc(C)c1 (stereo not shown) [Compound 48, ((4-Chloro-benzyl)-{1-[2-(3,5-dimethyl-phenyl)-acetyl]-2-methyl-azetidine-2-carbonyl}-amino)-acetic acid methyl ester]
18 | 6.30 to 7.00 | < 6.00 | O=C(O)CN(Cc1ccc(Cl)cc1)C(=O)C1(CO)CCN1C(=O)Cc1csc2ccccc12 (stereo not shown) [Compound 85, [[1-(2-Benzo[b]thiophen-3-yl-acetyl)-2-hydroxymethyl-azetidine-2-carbonyl]-(4-chloro-benzyl)-amino]-acetic acid]
19 | 6.30 to 7.00 | 6.00 to 6.30 | Cc1cc(C)cc(CC(=O)N2CCC2(C)C(=O)N(CCNS(C)(=O)=O)Cc2ccc(Cl)cc2)c1 (stereo not shown) [Compound 102, 1-[2-(3,5-Dimethyl-phenyl)-acetyl]-2-methyl-azetidine-2-carboxylic acid (4-chloro-benzyl)-(2-methanesulfonylamino-ethyl)-amide]
20 | < 6.00 | < 6.00 | CN(Cc1ccc(Cl)cc1)C(=O)C1(C)CCN1C(=O)Cc1ccc(-c2cccc(Cl)c2)cc1 (stereo not shown) [Compound 21, 1-[2-(3′-Chloro-biphenyl-4-yl)-acetyl]-2-methyl-azetidine-2-carboxylic acid (4-chloro-benzyl)-methyl-amide]
21 | < 6.00 | < 6.00 | Cc1cc(C)cc(CC(=O)N2CCC2(C)C(=O)N(C)Cc2ccc(Br)cc2)c1 (stereo not shown) [Compound 30, 1-[2-(3,5-Dimethyl-phenyl)-acetyl]-2-methyl-azetidine-2-carboxylic acid (4-bromo-benzyl)-methyl-amide]
22 | 6.30 to 7.00 | 6.30 to 7.00 | CCN(Cc1ccc(Cl)cc1)C(=O)C1(C)CCN1C(=O)Cc1cc(C)cc(C)c1 (stereo not shown) [Compound 35, 1-[2-(3,5-Dimethyl-phenyl)-acetyl]-2-methyl-azetidine-2-carboxylic acid (4-chloro-benzyl)-ethyl-amide]
23 | < 6.00 | < 6.00 | CN(Cc1ccc(Cl)cc1)C(=O)C1(C)CCN1C(=O)Cc1ccc(-c2cccc(C#N)c2)cc1 (stereo not shown) [Compound 22, 1-[2-(3′-Cyano-biphenyl-4-yl)-acetyl]-2-methyl-azetidine-2-carboxylic acid (4-chloro-benzyl)-methyl-amide]
24 | < 6.00 | 6.00 to 6.30 | Cc1cc(C)cc(CC(=O)N2CCC2(C)C(=O)N(CC(=O)NS(C)(=O)=O)Cc2ccc(Cl)cc2)c1 (stereo not shown) [Compound 95, 1-[2-(3,5-Dimethyl-phenyl)-acetyl]-2-methyl-azetidine-2-carboxylic acid (4-chloro-benzyl)-(2-methanesulfonylamino-2-oxo-ethyl)-amide]
25 | 6.00 to 6.30 | 6.00 to 6.30 | CCOC(=O)CCCN(Cc1ccc(Cl)cc1)C(=O)C1(C)CCN1C(=O)Cc1csc2ccccc12 (stereo not shown) [Compound 87, 4-[[1-(2-Benzo[b]thiophen-3-yl-acetyl)-2-methyl-azetidine-2-carbonyl]-(4-chloro-benzyl)-amino]-butyric acid ethyl ester]
26 | < 6.00 | < 6.00 | CN(Cc1ccc(Cl)cc1)C(=O)C1(C)CCN1C(=O)Cc1cccc(-c2ccccc2C(F)(F)F)c1 (stereo not shown) [Compound 28, 2-Methyl-1-[2-(2′-trifluoromethyl-biphenyl-3-yl)-acetyl]-azetidine-2-carboxylic acid (4-chloro-benzyl)-methyl-amide]
